US20210078988A1, “MODULATORS OF INDOLEAMINE 2,3-DIOXYGENASE” (GLAXOSMITHKLINE INTELLECTUAL PROPERTY DEVELOPMENT LIMITED, priority 2017, published 2021)

Target: T1, indoleamine 2, 3-dioxygenase (IDO1) (Homo sapiens, UniProt P14902)
T1 construct: human peripheral blood mononuclear cells (PBMC) (PB003F; host or cells: human PBMC stimulated with IFN-gamma and LPS
Experiment: PBMC IDO1 assay (kynurenine detection via mass spectrometry)
Assay type: cell-based
Settings: human PBMC stimulated with IFN-γ and LPS, 2 days, kynurenine by mass spectrometry; read-out: IDO1 PBMC pIC50 (converted)
Procedure, shortened: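 Kynurenine output, read by RapidFire mass spectrometry as a ratio to internal standard, reflected IDO1 activity in human PBMCs induced with 100 ng/ml IFN-γ plus 50 ng/ml LPS and dosed with compound (11 points, 3-fold) over 2 days. Cytotoxicity was tracked by CellTiter-Glo; XC50 values came from Hill-slope fits.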

T1 sequence (P14902 whole entry): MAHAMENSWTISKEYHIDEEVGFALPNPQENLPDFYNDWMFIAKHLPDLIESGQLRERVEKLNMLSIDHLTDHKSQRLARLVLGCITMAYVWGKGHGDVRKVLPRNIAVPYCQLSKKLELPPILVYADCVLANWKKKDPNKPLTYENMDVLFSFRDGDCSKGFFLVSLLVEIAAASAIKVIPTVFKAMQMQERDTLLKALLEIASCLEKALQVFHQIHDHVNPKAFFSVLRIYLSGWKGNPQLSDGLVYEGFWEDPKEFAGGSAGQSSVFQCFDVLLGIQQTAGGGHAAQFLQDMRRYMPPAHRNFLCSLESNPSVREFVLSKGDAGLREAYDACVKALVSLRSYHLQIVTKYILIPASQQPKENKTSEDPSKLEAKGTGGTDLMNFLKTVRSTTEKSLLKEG

IC50 [nM] | Structure (SMILES)
15.8 | CC(C)(C)OC(=O)N1CCC(C[C@@H](CCNCc2ccccc2)NC(=O)c2ccc(Cl)s2)CC1 [Example 83, (S)-tert-butyl 4-(4-(benzylamino)-2-(5-chlorothiophene-2-carboxamido)butyl)piperidine-1-carboxylate]
20 | CCOC(=O)N1CCC(CC(NC(=O)c2ccc(F)cc2)c2ccc(OC)nc2)CC1 (stereo not shown) [Example 85, ethyl 4-(2-(4-fluorobenzamido)-2-(6-methoxypyridin-3-yl)ethyl)piperidine-1-carboxylate]
20 | CCCc1ccc(C(=O)NC(CC2CCN(C(=O)OC(C)(C)C)CC2)c2ccccc2)s1 (stereo not shown) [Example 87, tert-butyl 4-(2-phenyl-2-(5-propylthiophene-2-carboxamido)ethyl)piperidine-1-carboxylate]
20 | CCCOC(=O)N1CCC(CC(NC(=O)c2ccc(Cl)cc2)c2ccccc2)CC1 (stereo not shown) [Example 89, propyl 4-(2-(4-chlorobenzamido)-2-phenylethyl)piperidine-1-carboxylate]
20 | Cc1ccc(C(=O)NC(CC2CCN(C(=O)C(F)(F)c3ccccc3)CC2)c2ccccc2)s1 (stereo not shown) [Example 93, N-(2-(1-(2,2-difluoro-2-phenylacetyl)piperidin-4-yl)-1-phenylethyl)-5-methylthiophene-2-carboxamide]
25.1 | O=C(NC(CC1CCN(C(=O)OC2CCCC2)CC1)c1ccccc1)c1ccc(Cl)cc1 (stereo not shown) [Example 100, cyclopentyl 4-(2-(4-chlorobenzamido)-2-phenylethyl)piperidine-1-carboxylate]
25.1 | CC(C)(C)OC(=O)N1CCC(CC(NC(=O)c2ccc(I)c(F)c2)c2ccccc2)CC1 (stereo not shown) [Example 101, tert-butyl 4-(2-(3-fluoro-4-iodobenzamido)-2-phenylethyl)piperidine-1-carboxylate]
25.1 | CCOC(=O)N1CCC(CC(NC(=O)c2ccc(Cl)cc2)c2ccccc2)CC1 (stereo not shown) [Example 102, ethyl 4-(2-(4-chlorobenzamido)-2-phenylethyl)piperidine-1-carboxylate]
31.6 | COc1ccc(C(=O)NC(CC2CCN(C(=O)OC(C)(C)C)CC2)c2ccccc2)cc1F (stereo not shown) [Example 109, tert-butyl 4-(2-(3-fluoro-4-methoxybenzamido)-2-phenylethyl)piperidine-1-carboxylate]
31.6 | COc1ccc(C(CC2CCN(C(=O)OC(C)(C)C)CC2)NC(=O)c2ccc(SC)cc2)cn1 (stereo not shown) [Example 111, tert-butyl 4-(2-(6-methoxypyridin-3-yl)-2-(4-(methylthio)benzamido)ethyl)piperidine-1-carboxylate]
31.6 | CCN(CC)c1nnc(C(CC2CCN(C(=O)OC(C)(C)C)CC2)NC(=O)c2ccc(F)cc2)o1 (stereo not shown) [Example 112, tert-butyl 4-(2-(5-(diethylamino)-1,3,4-oxadiazol-2-yl)-2-(4-fluorobenzamido)ethyl)piperidine-1-carboxylate]
31.6 | CC(C)(C)OC(=O)N1CCC(CC(NC(=O)c2ccc(F)s2)C2CCCC2)CC1 (stereo not shown) [Example 116, tert-butyl 4-(2-cyclopentyl-2-(5-fluorothiophene-2-carboxamido)ethyl)piperidine-1-carboxylate]
31.6 | CCc1ccc(C(=O)NC(CC2CCN(C(=O)OC(C)(C)C)CC2)c2ccccc2)cc1 (stereo not shown) [Example 118, tert-butyl 4-(2-(4-ethylbenzamido)-2-phenylethyl)piperidine-1-carboxylate]

The remaining lines, values behind:

Structure (SMILES) | IC50 [nM]
CCN(CCOC)c1nnc(C(CC2CCN(C(=O)OC(C)(C)C)CC2)NC(=O)c2ccc(C)s2)o1 (stereo not shown) [Example 82, tert-butyl 4-(2-(5-(ethyl(2-methoxyethyl)amino)-1,3,4-oxadiazol-2-yl)-2-(5-methylthiophene-2-carboxamido)ethyl)piperidine-1-carboxylate] | 15.8
CC(C)(C)OC(=O)N1CCC(CC(NC(=O)c2ccc(Cl)c(F)c2)c2ccccc2)CC1 (stereo not shown) [Example 84, tert-butyl 4-(2-(4-chloro-3-fluorobenzamido)-2-phenylethyl)piperidine-1-carboxylate] | 20
C#CCOc1ccc(C(=O)NC(CC2CCN(C(=O)OC(C)(C)C)CC2)c2ccccc2)cc1 (stereo not shown) [Example 86, tert-butyl 4-(2-phenyl-2-(4-(prop-2-yn-1-yloxy)benzamido)ethyl)piperidine-1-carboxylate] | 20
CC(C)C(CC1CCN(C(=O)OC(C)(C)C)CC1)NC(=O)c1ccc(Cl)cc1 (stereo not shown) [Example 88, tert-butyl 4-(2-(4-chlorobenzamido)-3-methylbutyl)piperidine-1-carboxylate] | 20
CC(C)(C)OC(=O)N1CCC(C[C@H](NC(=O)c2ccc(Cl)cc2)C2CC2)CC1 [Example 90, (S)-tert-butyl 4-(2-(4-chlorobenzamido)-2-cyclopropylethyl)piperidine-1-carboxylate] | 20
CC(C)(C)OC(=O)N1CCC(CC(NC(=O)c2ccc(Br)cc2)C2CCCCC2)CC1 (stereo not shown) [Example 91, tert-butyl 4-(2-(4-bromobenzamido)-2-cyclohexylethyl)piperidine-1-carboxylate] | 20
CC(C)(C)OC(=O)N1CCC(CC(NC(=O)c2ccc(F)s2)C2CCCCC2)CC1 (stereo not shown) [Example 92, tert-butyl 4-(2-cyclohexyl-2-(5-fluorothiophene-2-carboxamido)ethyl)piperidine-1-carboxylate] | 20
Cc1ccc(C(=O)NC(CC2CCN(C(=O)C(F)(F)F)CC2)c2ccccc2)s1 (stereo not shown) [Example 94, 5-methyl-N-(1-phenyl-2-(1-(2,2,2-trifluoroacetyl)piperidin-4-yl)ethyl)thiophene-2-carboxamide] | 20
CCC(F)(F)C(=O)N1CCC(CC(NC(=O)c2ccc(C)s2)c2ccccc2)CC1 (stereo not shown) [Example 95, N-(2-(1-(2,2-difluorobutanoyl)piperidin-4-yl)-1-phenylethyl)-5-methylthiophene-2-carboxamide] | 20
CCCCN(CC)c1nnc(C(CC2CCN(C(=O)OC(C)(C)C)CC2)NC(=O)c2ccc(C)s2)o1 (stereo not shown) [Example 96, tert-butyl 4-(2-(5-(butyl(ethyl)amino)-1,3,4-oxadiazol-2-yl)-2-(5-methylthiophene-2-carboxamido)ethyl)piperidine-1-carboxylate] | 20
CC(C)(C)OC(=O)N1CCC(CC(NC(=O)c2ccc(C3CC3)cc2)c2ccccc2)CC1 (stereo not shown) [Example 97, tert-butyl 4-(2-(4-cyclopropylbenzamido)-2-phenylethyl)piperidine-1-carboxylate] | 25.1
CC(C)(C)OC(=O)N1CCC(CC(NC(=O)c2ccc(C3CC3)s2)c2ccccc2)CC1 (stereo not shown) [Example 98, tert-butyl 4-(2-(5-cyclopropylthiophene-2-carboxamido)-2-phenylethyl)piperidine-1-carboxylate] | 25.1
CC(C)C(CC1CCN(C(=O)OC(C)(C)C)CC1)NC(=O)c1ccc(Cl)s1 (stereo not shown) [Example 99, tert-butyl 4-(2-(5-chlorothiophene-2-carboxamido)-3-methylbutyl)piperidine-1-carboxylate] | 25.1
CC(C)OC(=O)N1CCC(CC(NC(=O)c2ccc(Cl)cc2)c2ccccc2)CC1 (stereo not shown) [Example 103, isopropyl 4-(2-(4-chlorobenzamido)-2-phenylethyl)piperidine-1-carboxylate] | 25.1
O=C(NC(CC1CCN(C(=O)Oc2ccccc2)CC1)c1ccccc1)c1ccc(Cl)cc1 (stereo not shown) [Example 104, phenyl 4-(2-(4-chlorobenzamido)-2-phenylethyl)piperidine-1-carboxylate] | 25.1
O=C(NC(CC1CCN(C(=O)OCC2CC2)CC1)c1ccccc1)c1ccc(Cl)cc1 (stereo not shown) [Example 105, cyclopropylmethyl 4-(2-(4-chlorobenzamido)-2-phenylethyl)piperidine-1-carboxylate] | 25.1
CCc1ccc(C(=O)NC(CC2CCN(C(=O)OC(C)(C)C)CC2)C2CCCCC2)s1 (stereo not shown) [Example 106, tert-butyl 4-(2-cyclohexyl-2-(5-ethylthiophene-2-carboxamido)ethyl)piperidine-1-carboxylate] | 25.1
CC(C)(C)OC(=O)N1CCC(CC(NC(=O)c2ccc(F)cc2)c2ccccc2)CC1 (stereo not shown) [Example 107, tert-butyl 4-(2-(4-fluorobenzamido)-2-phenylethyl)piperidine-1-carboxylate] | 31.6
CCOC(=O)N1CCC(CC(NC(=O)c2ccc(F)cc2)C2CC2)CC1 (stereo not shown) [Example 108, ethyl 4-(2-cyclopropyl-2-(4-fluorobenzamido)ethyl)piperidine-1-carboxylate] | 31.6
CC(C)(C)OC(=O)N1CCC(CC(NC(=O)c2ccc(C(F)(F)F)cc2)c2ccccc2)CC1 (stereo not shown) [Example 110, tert-butyl 4-(2-phenyl-2-(4-(trifluoromethyl)benzamido)ethyl)piperidine-1-carboxylate] | 31.6
COCCN(C)c1nnc(C(CC2CCN(C(=O)OC(C)(C)C)CC2)NC(=O)c2ccc(Cl)s2)o1 (stereo not shown) [Example 113, tert-butyl 4-(2-(5-chlorothiophene-2-carboxamido)-2-(5-((2-methoxyethyl)(methyl)amino)-1,3,4-oxadiazol-2-yl)ethyl)piperidine-1-carboxylate] | 31.6
C#CCOc1ccc(C(=O)NC(CC2CCN(C(=O)OC(C)(C)C)CC2)c2ccccc2)cc1F (stereo not shown) [Example 114, tert-butyl 4-(2-(3-fluoro-4-(prop-2-yn-1-yloxy)benzamido)-2-phenylethyl)piperidine-1-carboxylate] | 31.6
CC(C)(C)OC(=O)N1CCC(CC(NC(=O)c2ccc(Cl)s2)C2CCCC2)CC1 (stereo not shown) [Example 115, tert-butyl 4-(2-(5-chlorothiophene-2-carboxamido)-2-cyclopentylethyl)piperidine-1-carboxylate] | 31.6
O=C(NC(CC1CCN(C(=O)OCc2ccccc2)CC1)c1ccccc1)c1ccc(Cl)cc1 (stereo not shown) [Example 117, benzyl 4-(2-(4-chlorobenzamido)-2-phenylethyl)piperidine-1-carboxylate] | 31.6
